Test results published in patent US20220088016A1, “CANCER TREATMENT USING MULTI-TARGETED KINASE INHIBITOR IN COMBINATION OF PROTEIN KINASE BIOMARKERS” (ZHEJIANG CROWNMAB BIOTECH CO. LTD., priority 2019, published 2022).

Key:
Assay in all cases: Kinase profiling
Assay type in all cases: binding
[1] = target: AKT2 (Homo sapiens, UniProt P31751); conditions: read-out: % Ctrl @ 1000 nM
[2] = target: ALK (Homo sapiens, UniProt Q9UM73); conditions: read-out: % Ctrl @ 1000 nM
[3] = target: AXL (Homo sapiens, UniProt P30530); conditions: read-out: % Ctrl @ 1000 nM
[4] = target: CDC2L1 (Homo sapiens, UniProt P21127); conditions: read-out: % Ctrl @ 1000 nM
[5] = target: CDKL1 (Homo sapiens, UniProt Q00532); conditions: read-out: % Ctrl @ 1000 nM
[6] = target: DAPK1 (Homo sapiens, UniProt P53355); conditions: read-out: % Ctrl @ 1000 nM
[7] = target: DLK (Homo sapiens, UniProt Q12852); conditions: read-out: % Ctrl @ 1000 nM
[8] = target: EGFR (L858R) (Homo sapiens, UniProt P00533, L858R); conditions: read-out: % Ctrl @ 1000 nM
[9] = target: ERK5 (Homo sapiens, UniProt Q13164); conditions: read-out: % Ctrl @ 1000 nM
[10] = target: ERK8 (Homo sapiens, UniProt Q8TD08); conditions: read-out: % Ctrl @ 1000 nM
[11] = target: FGFR2 (Homo sapiens, UniProt P21802); conditions: read-out: % Ctrl @ 1000 nM
Chain of FGFR2 (P21802 22-821): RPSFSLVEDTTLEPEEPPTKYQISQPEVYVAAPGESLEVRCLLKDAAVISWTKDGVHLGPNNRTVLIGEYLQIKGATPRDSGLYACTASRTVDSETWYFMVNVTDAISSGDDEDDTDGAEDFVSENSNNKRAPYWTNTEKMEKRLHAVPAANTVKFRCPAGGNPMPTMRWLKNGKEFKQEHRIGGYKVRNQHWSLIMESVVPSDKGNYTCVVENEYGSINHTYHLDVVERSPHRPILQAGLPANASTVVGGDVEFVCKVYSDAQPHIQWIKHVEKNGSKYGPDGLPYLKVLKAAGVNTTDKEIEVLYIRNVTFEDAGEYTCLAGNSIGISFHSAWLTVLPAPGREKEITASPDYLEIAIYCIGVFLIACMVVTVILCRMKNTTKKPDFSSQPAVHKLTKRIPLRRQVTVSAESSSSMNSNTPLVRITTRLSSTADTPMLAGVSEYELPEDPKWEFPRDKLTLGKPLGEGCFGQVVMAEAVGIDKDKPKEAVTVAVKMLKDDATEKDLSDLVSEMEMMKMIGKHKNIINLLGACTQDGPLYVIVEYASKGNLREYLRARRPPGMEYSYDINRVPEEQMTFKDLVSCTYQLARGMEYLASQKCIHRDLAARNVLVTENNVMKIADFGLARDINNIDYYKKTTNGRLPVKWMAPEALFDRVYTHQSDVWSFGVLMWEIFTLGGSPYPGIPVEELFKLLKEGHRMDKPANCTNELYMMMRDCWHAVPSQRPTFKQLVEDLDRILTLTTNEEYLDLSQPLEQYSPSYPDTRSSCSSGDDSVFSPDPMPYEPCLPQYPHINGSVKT

[12] = target: FGFR3 (Homo sapiens, UniProt P22607); conditions: read-out: % Ctrl @ 1000 nM
[13] = target: FLT3 (D835H) (Homo sapiens, UniProt P36888, D835H); conditions: read-out: % Ctrl @ 1000 nM
[14] = system: FLT3 (ITD, F691L)
[15] = target: HIPK4 (Homo sapiens, UniProt Q8NE63); conditions: read-out: % Ctrl @ 1000 nM
[16] = target: IRAK3 (Homo sapiens, UniProt Q9Y616); conditions: read-out: % Ctrl @ 1000 nM
[17] = target: LATS2 (Homo sapiens, UniProt Q9NRM7); conditions: read-out: % Ctrl @ 1000 nM
Chain of LATS2 (Q9NRM7 whole entry): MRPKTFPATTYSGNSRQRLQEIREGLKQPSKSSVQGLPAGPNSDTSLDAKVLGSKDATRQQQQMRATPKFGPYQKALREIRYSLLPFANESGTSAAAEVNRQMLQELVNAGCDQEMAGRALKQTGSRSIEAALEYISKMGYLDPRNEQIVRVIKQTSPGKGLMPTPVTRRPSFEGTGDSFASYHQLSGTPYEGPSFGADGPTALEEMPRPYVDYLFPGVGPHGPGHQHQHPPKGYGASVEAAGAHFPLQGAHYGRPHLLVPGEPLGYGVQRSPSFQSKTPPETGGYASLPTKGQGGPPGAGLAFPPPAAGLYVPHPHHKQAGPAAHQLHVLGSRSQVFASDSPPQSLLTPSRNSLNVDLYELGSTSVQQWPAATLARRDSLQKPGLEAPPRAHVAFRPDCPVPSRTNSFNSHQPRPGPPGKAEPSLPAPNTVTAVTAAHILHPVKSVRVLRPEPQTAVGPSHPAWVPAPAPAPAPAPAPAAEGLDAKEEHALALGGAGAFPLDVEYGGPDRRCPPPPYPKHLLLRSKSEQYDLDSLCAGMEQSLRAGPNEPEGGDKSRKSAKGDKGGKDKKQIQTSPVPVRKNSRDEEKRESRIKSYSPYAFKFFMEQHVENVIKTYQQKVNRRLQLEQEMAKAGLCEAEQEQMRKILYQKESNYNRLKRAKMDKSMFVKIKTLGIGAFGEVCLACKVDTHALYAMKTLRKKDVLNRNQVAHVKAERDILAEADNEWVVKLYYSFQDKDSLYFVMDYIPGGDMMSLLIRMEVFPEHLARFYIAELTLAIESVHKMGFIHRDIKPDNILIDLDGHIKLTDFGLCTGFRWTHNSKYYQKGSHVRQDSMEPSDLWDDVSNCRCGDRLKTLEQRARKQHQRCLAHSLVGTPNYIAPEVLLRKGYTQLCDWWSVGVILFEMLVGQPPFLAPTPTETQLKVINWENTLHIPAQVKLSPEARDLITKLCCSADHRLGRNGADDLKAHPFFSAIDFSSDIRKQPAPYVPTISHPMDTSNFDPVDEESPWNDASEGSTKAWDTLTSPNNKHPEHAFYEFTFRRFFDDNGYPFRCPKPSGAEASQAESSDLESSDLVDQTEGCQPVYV

[18] = target: LKB1 (Homo sapiens, UniProt Q15831); conditions: read-out: % Ctrl @ 1000 nM
[19] = target: LYN (Homo sapiens, UniProt P07948); conditions: read-out: % Ctrl @ 1000 nM
[20] = target: MAP3K2 (Homo sapiens, UniProt Q9Y2U5); conditions: read-out: % Ctrl @ 1000 nM
[21] = target: MAP4K4 (Homo sapiens, UniProt O95819); conditions: read-out: % Ctrl @ 1000 nM
Chain of MAP4K4 (O95819 whole entry): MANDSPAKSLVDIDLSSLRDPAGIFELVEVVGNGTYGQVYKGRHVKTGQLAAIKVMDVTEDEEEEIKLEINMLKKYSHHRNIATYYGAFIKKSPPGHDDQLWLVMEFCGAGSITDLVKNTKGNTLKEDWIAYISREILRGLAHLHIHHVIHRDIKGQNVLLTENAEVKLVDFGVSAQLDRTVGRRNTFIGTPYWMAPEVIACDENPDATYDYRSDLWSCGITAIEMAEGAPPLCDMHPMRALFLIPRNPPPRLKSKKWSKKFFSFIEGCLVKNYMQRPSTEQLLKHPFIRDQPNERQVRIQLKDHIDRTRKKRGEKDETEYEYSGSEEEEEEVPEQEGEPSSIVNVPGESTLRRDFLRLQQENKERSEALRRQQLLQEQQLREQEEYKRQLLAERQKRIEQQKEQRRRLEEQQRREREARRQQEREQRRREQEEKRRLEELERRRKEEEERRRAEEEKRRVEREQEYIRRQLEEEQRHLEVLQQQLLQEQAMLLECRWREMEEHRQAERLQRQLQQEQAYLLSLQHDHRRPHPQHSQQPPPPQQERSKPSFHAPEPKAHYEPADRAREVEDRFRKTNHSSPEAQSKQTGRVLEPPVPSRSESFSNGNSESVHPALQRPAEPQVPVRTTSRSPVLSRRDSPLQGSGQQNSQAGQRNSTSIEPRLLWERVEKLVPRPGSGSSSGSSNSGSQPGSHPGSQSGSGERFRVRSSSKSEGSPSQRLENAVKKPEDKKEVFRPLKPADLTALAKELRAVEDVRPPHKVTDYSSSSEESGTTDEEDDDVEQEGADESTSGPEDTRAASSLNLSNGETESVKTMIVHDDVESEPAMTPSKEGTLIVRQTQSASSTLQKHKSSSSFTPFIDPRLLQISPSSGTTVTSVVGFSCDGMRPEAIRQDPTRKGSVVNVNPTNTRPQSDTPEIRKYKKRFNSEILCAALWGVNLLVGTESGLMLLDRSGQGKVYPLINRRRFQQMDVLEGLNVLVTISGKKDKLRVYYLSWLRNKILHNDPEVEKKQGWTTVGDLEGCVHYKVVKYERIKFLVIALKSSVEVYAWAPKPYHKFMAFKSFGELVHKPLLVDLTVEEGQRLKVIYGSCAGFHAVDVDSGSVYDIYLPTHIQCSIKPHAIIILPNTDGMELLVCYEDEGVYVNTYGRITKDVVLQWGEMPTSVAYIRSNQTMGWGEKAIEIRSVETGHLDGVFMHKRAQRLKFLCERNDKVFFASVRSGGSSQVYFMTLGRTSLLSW

[22] = target: MARK1 (Homo sapiens, UniProt Q9P0L2); conditions: read-out: % Ctrl @ 1000 nM
[23] = target: MARK3 (Homo sapiens, UniProt P27448); conditions: read-out: % Ctrl @ 1000 nM
[24] = target: T1, MAST1 (Homo sapiens, UniProt Q9Y2H9); conditions: read-out: % Ctrl @ 1000 nM
T1 construct: T7 phage fusion (stated for most kinases of the panel only); made in house; host or cells: T7 phage in E. coli (BL21-derived) or HEK-293 cells

[25] = target: T2, MEK4 (Homo sapiens, UniProt P45985); conditions: read-out: % Ctrl @ 1000 nM
T2 construct: T7 phage fusion (stated for most kinases of the panel only); made in house; host or cells: T7 phage in E. coli (BL21-derived) or HEK-293 cells
T2 sequence (P45985 whole entry, the tested form may be a part): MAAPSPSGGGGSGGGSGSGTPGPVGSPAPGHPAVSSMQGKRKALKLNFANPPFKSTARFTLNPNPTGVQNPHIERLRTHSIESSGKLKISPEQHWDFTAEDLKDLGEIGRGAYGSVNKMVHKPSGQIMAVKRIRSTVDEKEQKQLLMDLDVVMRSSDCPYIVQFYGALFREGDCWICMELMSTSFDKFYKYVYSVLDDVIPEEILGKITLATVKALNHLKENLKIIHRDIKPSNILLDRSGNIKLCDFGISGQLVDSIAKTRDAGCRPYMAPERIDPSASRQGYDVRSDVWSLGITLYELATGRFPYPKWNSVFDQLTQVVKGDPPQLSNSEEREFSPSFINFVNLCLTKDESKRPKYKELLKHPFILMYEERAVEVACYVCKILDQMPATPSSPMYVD

[26] = target: T3, MET (M1250T) (Homo sapiens, UniProt P08581, M1250T); conditions: read-out: % Ctrl @ 1000 nM
T3 construct: T7 phage fusion (stated for most kinases of the panel only); made in house; host or cells: T7 phage in E. coli (BL21-derived) or HEK-293 cells

[27] = target: T4, MYLK2 (Homo sapiens, UniProt Q9H1R3); conditions: read-out: % Ctrl @ 1000 nM
T4 construct: T7 phage fusion (said for most assays); made in house

[28] = target: T5, NEK1 (Homo sapiens, UniProt Q96PY6); conditions: read-out: % Ctrl @ 1000 nM
T5 construct: T7 phage fusion (said for most assays); made in house

[29] = target: PAK4 (Homo sapiens, UniProt O96013); conditions: read-out: % Ctrl @ 1000 nM
[30] = target: PHKG1 (Homo sapiens, UniProt Q16816); conditions: read-out: % Ctrl @ 1000 nM
[31] = target: PIK3C2G (Homo sapiens, UniProt O75747); conditions: read-out: % Ctrl @ 1000 nM
[32] = target: PIK3CA (H1047Y) (Homo sapiens, UniProt P42336, H1047Y); conditions: read-out: % Ctrl @ 1000 nM
[33] = target: PIK3CG (Homo sapiens, UniProt P48736); conditions: read-out: % Ctrl @ 1000 nM
[34] = target: PIM3 (Homo sapiens, UniProt Q86V86); conditions: read-out: % Ctrl @ 1000 nM
[35] = target: PIP5K1A (Homo sapiens, UniProt Q99755); conditions: read-out: % Ctrl @ 1000 nM
Chain of PIP5K1A (Q99755 whole entry): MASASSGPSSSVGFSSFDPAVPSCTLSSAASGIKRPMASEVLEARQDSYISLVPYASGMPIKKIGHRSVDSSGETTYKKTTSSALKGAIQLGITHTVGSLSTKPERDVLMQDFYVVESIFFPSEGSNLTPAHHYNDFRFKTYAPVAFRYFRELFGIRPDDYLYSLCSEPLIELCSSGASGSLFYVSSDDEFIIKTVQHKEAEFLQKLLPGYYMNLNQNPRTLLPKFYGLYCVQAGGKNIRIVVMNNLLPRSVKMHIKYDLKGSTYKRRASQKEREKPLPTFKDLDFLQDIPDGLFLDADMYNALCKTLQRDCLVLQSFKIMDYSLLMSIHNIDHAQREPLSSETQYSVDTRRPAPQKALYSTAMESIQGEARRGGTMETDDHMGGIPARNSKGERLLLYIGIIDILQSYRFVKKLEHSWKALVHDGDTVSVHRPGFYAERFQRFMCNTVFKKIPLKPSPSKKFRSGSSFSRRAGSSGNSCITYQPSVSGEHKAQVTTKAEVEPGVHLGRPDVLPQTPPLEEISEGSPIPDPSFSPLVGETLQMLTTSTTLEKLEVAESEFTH

[36] = target: PIP5K1C (Homo sapiens, UniProt O60331); conditions: read-out: % Ctrl @ 1000 nM
[37] = target: PRKCE (Homo sapiens, UniProt Q02156); conditions: read-out: % Ctrl @ 1000 nM
[38] = target: PRKG1 (Homo sapiens, UniProt Q13976); conditions: read-out: % Ctrl @ 1000 nM
[39] = target: RET (Homo sapiens, UniProt P07949); conditions: read-out: % Ctrl @ 1000 nM
[40] = target: TAOK3 (Homo sapiens, UniProt Q9H2K8); conditions: read-out: % Ctrl @ 1000 nM
Chain of TAOK3 (Q9H2K8 whole entry): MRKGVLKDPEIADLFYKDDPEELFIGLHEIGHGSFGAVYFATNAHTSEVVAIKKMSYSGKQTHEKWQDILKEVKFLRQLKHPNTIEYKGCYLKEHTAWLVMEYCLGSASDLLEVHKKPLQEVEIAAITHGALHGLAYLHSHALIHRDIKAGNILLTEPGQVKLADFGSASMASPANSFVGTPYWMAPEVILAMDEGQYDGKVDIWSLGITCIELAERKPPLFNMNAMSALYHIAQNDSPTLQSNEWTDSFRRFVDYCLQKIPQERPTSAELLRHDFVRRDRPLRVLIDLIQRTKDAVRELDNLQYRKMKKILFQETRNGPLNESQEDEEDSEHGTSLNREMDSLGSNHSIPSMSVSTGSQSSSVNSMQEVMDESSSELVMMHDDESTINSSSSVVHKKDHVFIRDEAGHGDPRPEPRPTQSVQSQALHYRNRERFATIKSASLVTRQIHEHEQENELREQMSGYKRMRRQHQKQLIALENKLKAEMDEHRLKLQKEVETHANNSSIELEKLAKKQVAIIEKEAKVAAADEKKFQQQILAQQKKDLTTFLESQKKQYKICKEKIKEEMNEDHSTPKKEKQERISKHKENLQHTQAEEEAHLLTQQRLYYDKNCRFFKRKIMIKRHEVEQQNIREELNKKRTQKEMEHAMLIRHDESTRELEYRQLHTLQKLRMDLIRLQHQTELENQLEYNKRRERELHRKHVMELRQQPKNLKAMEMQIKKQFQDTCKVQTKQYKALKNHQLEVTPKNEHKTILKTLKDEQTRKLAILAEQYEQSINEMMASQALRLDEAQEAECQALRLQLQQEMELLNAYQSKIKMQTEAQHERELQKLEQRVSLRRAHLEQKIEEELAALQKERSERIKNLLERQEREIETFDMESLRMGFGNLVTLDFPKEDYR

Compound: Cc1cc(Oc2cc(NC(=O)C3CC3)ncn2)ccc1NC(=O)Nc1ccc(Cl)c(C(F)(F)F)c1 [CBT-102]
- remaining activity at 1 µM [1]: 100%
- remaining activity at 1 µM [2]: 100%
- remaining activity at 1 µM [3]: 56%
- remaining activity at 1 µM [4]: 36%
- remaining activity at 1 µM [5]: 65%
- remaining activity at 1 µM [6]: 98%
- remaining activity at 1 µM [7]: 89%
- remaining activity at 1 µM [8]: 87%
- remaining activity at 1 µM [9]: 88%
- remaining activity at 1 µM [10]: 0.6%
- remaining activity at 1 µM [11]: 62%
- remaining activity at 1 µM [12]: 87%
- remaining activity at 1 µM [13]: 42%
- % Ctrl @ 1000 nM [14]: 86%
- remaining activity at 1 µM [15]: 11%
- remaining activity at 1 µM [16]: 100%
- remaining activity at 1 µM [17]: 100%
- remaining activity at 1 µM [18]: 100%
- remaining activity at 1 µM [19]: 20%
- remaining activity at 1 µM [20]: 90%
- remaining activity at 1 µM [21]: 3.4%
- remaining activity at 1 µM [22]: 100%
- remaining activity at 1 µM [23]: 100%
- remaining activity at 1 µM [24]: 86%
- remaining activity at 1 µM [25]: 100%
- remaining activity at 1 µM [26]: 84%
- remaining activity at 1 µM [27]: 98%
- remaining activity at 1 µM [28]: 100%
- remaining activity at 1 µM [29]: 100%
- remaining activity at 1 µM [30]: 96%
- remaining activity at 1 µM [31]: 100%
- remaining activity at 1 µM [32]: 100%
- remaining activity at 1 µM [33]: 100%
- remaining activity at 1 µM [34]: 98%
- remaining activity at 1 µM [35]: 100%
- remaining activity at 1 µM [36]: 93%
- remaining activity at 1 µM [37]: 99%
- remaining activity at 1 µM [38]: 100%
- remaining activity at 1 µM [39]: 0%
- remaining activity at 1 µM [40]: 9.6%
